The subject of this test is HL-60. Description: Antiproliferative activity against human HL60 cells after 72 hrs by MTT assay. It counts as functional, cell-based. The settings on record: HL-60, 72 h. A general note: Tetrazolium assays rely on reduction of a dye to a coloured formazan, in cell work by metabolically active cells.

The structures appear in SMILES notation.

For orientation: IC50 means the concentration needed to halve the response being measured. Read a high IC50 as weaker potency in that assay. In turn, `CN(C)C(=S)NN=C(c1ccccn1)c1ccccn1` displayed an IC50 of 0.01 µM.

For the origin of these results see ChEMBL document CHEMBL1139363, “Iron chelators of the dipyridylketone thiosemicarbazone class: precomplexation and transmetalation effects on anticancer activity” (J Med Chem, 2009).
